Laboratory results: US9617256B2 (priority 2007, dated 2017)
Values after ≈ are worked out from the molar mass of the structure shown. Read-outs that look alike come from different tables or passages of the source.

Tests used:
AECO001 (ATCC25922) = assay: MIC broth microdilution, AECO001; assay type: cell-based, E. coli; conditions: for MIC: Escherichia coli
Experimental: (§1) Bacterial isolates were cultivated from −70° C. frozen stocks by overnight passages at 35° C. in ambient air on Mueller-Hinton agar (Beckton Dickinson, Franklin Lakes, N.J.). Clinical isolates tested were obtained from various geographically diverse hospitals in the US and abroad (Focus Diagnostics, Herndon, Va. and JMI, North Liberty, Iowa). Quality control strains were from the American Type Culture Collection (ATCC; Rockville, Md.). Additional primary panel strains were generated using standard molecular biology techniques.
(§2) Minimum Inhibitory Concentrations (MICs) were determined by the broth microdilution method in accordance with the Clinical and Laboratory Standards Institute (CLSI) guidelines. In brief, organism suspensions were adjusted to a 0.5 McFarland standard to yield a final inoculum between 3×10^5 and 7×10^5 colony-forming units (CFU)/mL. Drug dilutions and inocula were made in sterile, cation adjusted Mueller-Hinton Broth (Beckton Dickinson). An inoculum volume of 100 μL was added to wells containing 100 μL of broth with 2-fold serial dilutions of drug. All inoculated microdilution trays were incubated in ambient air at 35° C. for 18-24 hours. […] Performance of the assay was monitored by the use of laboratory quality-control strains and levofloxacin, a compound with a defined MIC spectrum, in accordance with CLSI guidelines.
(§3) *AECO001 is ATCC25922, AECO063 is ATCC25922 bearing an acrAB mutation, APAE001 is ATCC27853, APAE006 is a strain of P. aeruginosa in which all efflux pumps are inactivated, APAE006+PMBN indicates MICs with the indicated strain in the presence of 8 micrograms per milliliter of polymyxin B nonapeptide, AABA1060 is a clinical isolate of Acinetobacter baumannii, ASAU001 is a laboratory strain of S. aureus (ATCC29213).

[1] = tested on: AECO063 (ATCC25922 bearing an acrAB mutation); assay: microbe, parasite or virus in culture; assay type: cell-based, E. coli; conditions: for MIC: Escherichia coli, ATCC25922, read-out: MIC AECO063
Experimental: as §1, §2, §3

APAE001 (ATCC27853) = assay: MIC broth microdilution, APAE001; assay type: cell-based, P. aeruginosa; conditions: Pseudomonas aeruginosa, ATCC27853, read-out: MIC APAE001, APAE001 (ATCC27853)
Experimental: as §1, §2, §3

[2] = tested on: APAE006 (strain of P. aeruginosa in which all efflux pumps are inactivated); assay: microbe, parasite or virus in culture; assay type: cell-based; conditions: Pseudomonas aeruginosa, read-out: MIC APAE006, APAE006, all efflux pumps inactivated
Experimental: as §1, §2, §3

[3] = tested on: APAE006 in the presence of 8 micrograms per milliliter of polymyxin B nonapeptide; assay type: cell-based, P. aeruginosa; conditions: APAE006 with 8 micrograms per milliliter polymyxin B nonapeptide
Experimental: as §1, §2, §3

[4] = tested on: AABA1060 (clinical isolate of Acinetobacter baumannii); assay: MIC broth microdilution, AABA1060; assay type: cell-based; conditions: for MIC: Acinetobacter baumannii, read-out: MIC AABA1060
Experimental: as §1, §2, §3

[5] = tested on: ASAU001 (laboratory strain of S. aureus, ATCC29213); assay: MIC broth microdilution, ASAU001; assay type: cell-based; conditions: for MIC: Staphylococcus aureus, ATCC29213, read-out: MIC ASAU001
Experimental: as §1, §2, §3

[6] = ATCC25922, read-out: MIC AECO001
[7] = ATCC25922, read-out: MIC AECO001 HSA AGP

Row | Compound | MIC (AECO001 (ATCC25922); [6]) | MIC (AECO001 (ATCC25922); [7]) | MIC [1] | MIC (APAE001 (ATCC27853)) | MIC [2] | MIC APAE006 + PMBN [3] | MIC [4] | MIC [5] | MIC AECO001 (AECO001 (ATCC25922); AECO001 (ATCC25922)) | MIC AECO063 ([1]; AECO063 (ATCC25922 acrAB mutation)) | MIC AABA1060 ([4]; AABA1060 clinical isolate) | MIC ASAU001 ([5]; ASAU001 (ATCC29213)) | Ratio of MICs on AECO001 [Cpd (A = —CHCH3NH2)/Cpd (A = —C(CH3)2NH2)] (AECO001 (ATCC25922); MIC of paired compound with A = —CHCH3NH2 divided by MIC of compound with A = —C(CH3)2NH2, n=2 data, pairs identical except for the A moiety)
1 | CC(C)(O)[C@H](NC(=O)c1ccc(C#CC#Cc2ccc(F)cc2)cc1)C(=O)NO [Example 82-19] | < 2 µg/mL | 2 to 16 µg/mL (≈ 5.07 to 40.6 µM) | < 2 µg/mL | 2 to 16 µg/mL (≈ 5.07 to 40.6 µM) | < 2 µg/mL | A (MIC's of 2.0 μg/mL or less = A) | < 2 µg/mL | 16 to 64 µg/mL (≈ 40.6 to 162 µM) | – | – | – | – | –
2 | CCOCc1ccc(C#CC#Cc2ccc(C(=O)N[C@H](C(=O)NO)[C@@H](C)O)cc2)cc1 [Example 82-20] | < 2 µg/mL | 2 to 16 µg/mL (≈ 4.76 to 38.1 µM) | < 2 µg/mL | 2 to 16 µg/mL (≈ 4.76 to 38.1 µM) | < 2 µg/mL | A (MIC's of 2.0 μg/mL or less = A) | 2 to 16 µg/mL (≈ 4.76 to 38.1 µM) | 16 to 64 µg/mL (≈ 38.1 to 152 µM) | – | – | – | – | –
3 | CCOCc1ccc(C#CC#Cc2ccc(C(=O)N[C@H](C(=O)NO)C(C)(C)O)cc2)cc1 [Example 82-21] | < 2 µg/mL | 2 to 16 µg/mL (≈ 4.6 to 36.8 µM) | < 2 µg/mL | 2 to 16 µg/mL (≈ 4.6 to 36.8 µM) | < 2 µg/mL | A (MIC's of 2.0 μg/mL or less = A) | < 2 µg/mL | 16 to 64 µg/mL (≈ 36.8 to 147 µM) | – | – | – | – | –
4 | C[C@@H](O)[C@H](NC(=O)c1ccc(C#CC#Cc2ccc(C(F)(F)F)cc2)cc1)C(=O)NO [Example 82-22] | – | 16 to 64 µg/mL (≈ 37.2 to 149 µM) | – | 16 to 64 µg/mL (≈ 37.2 to 149 µM) | 16 to 64 µg/mL (≈ 37.2 to 149 µM) | A (MIC's of 2.0 μg/mL or less = A) | – | – | A (MIC's of 2.0 μg/mL or less = A) | A (MIC's of 2.0 μg/mL or less = A) | C (MIC's of greater than 16.0 μg/mL to 64.0 μg/mL = C) | C (MIC's of greater than 16.0 μg/mL to 64.0 μg/mL = C) | –
5 | C[C@@H](O)[C@H](NC(=O)c1ccc(C#CC#Cc2ccc(F)cc2)cc1)C(=O)NO [Example 82-23] | < 2 µg/mL | 16 to 64 µg/mL (≈ 42.1 to 168 µM) | < 2 µg/mL | 16 to 64 µg/mL (≈ 42.1 to 168 µM) | < 2 µg/mL | A (MIC's of 2.0 μg/mL or less = A) | 16 to 64 µg/mL (≈ 42.1 to 168 µM) | 16 to 64 µg/mL (≈ 42.1 to 168 µM) | – | – | – | – | –
6 | CC(C)(O)[C@H](NC(=O)c1ccc(C#CC#Cc2cccc(F)c2)cc1)C(=O)NO [Example 82-24] | < 2 µg/mL | 2 to 16 µg/mL (≈ 5.07 to 40.6 µM) | < 2 µg/mL | 2 to 16 µg/mL (≈ 5.07 to 40.6 µM) | < 2 µg/mL | A (MIC's of 2.0 μg/mL or less = A) | < 2 µg/mL | 2 to 16 µg/mL (≈ 5.07 to 40.6 µM) | – | – | – | – | –
7 | CC(C)(N)[C@H](NC(=O)c1ccc(C#CC#Cc2ccc(N)cc2)cc1)C(=O)NO [Example 82-25] | < 2 µg/mL | < 2 µg/mL | < 2 µg/mL | < 2 µg/mL | < 2 µg/mL | A (MIC's of 2.0 μg/mL or less = A) | < 2 µg/mL | 16 to 64 µg/mL (≈ 41 to 164 µM) | – | – | – | – | 1.6
8 | CC(C)(N)[C@H](NC(=O)c1ccc(C#CC#Cc2ccccc2F)cc1)C(=O)NO [Example 82-29] | < 2 µg/mL | < 2 µg/mL | – | < 2 µg/mL | < 2 µg/mL | – | < 2 µg/mL | 2 to 16 µg/mL (≈ 5.08 to 40.7 µM) | – | – | – | – | –
9 | CC(C)(O)[C@H](NC(=O)c1ccc(C#CC#Cc2cccs2)cc1)C(=O)NO [Example 88-11] | < 2 µg/mL | < 2 µg/mL | < 2 µg/mL | < 2 µg/mL | < 2 µg/mL | – | < 2 µg/mL | 16 to 64 µg/mL (≈ 41.8 to 167 µM) | – | – | – | – | –
10 | CC(C)CC#CC#Cc1ccc(C(=O)N[C@H](C(=O)NO)[C@@H](C)N)cc1 [Example 91-24] | < 2 µg/mL | 2 to 16 µg/mL (≈ 5.86 to 46.9 µM) | < 2 µg/mL | < 2 µg/mL | < 2 µg/mL | – | 2 to 16 µg/mL (≈ 5.86 to 46.9 µM) | 2 to 16 µg/mL (≈ 5.86 to 46.9 µM) | – | – | – | – | –
11 | CC(C)(N)[C@H](NC(=O)c1ccc(C#CC#CCC2CC2)cc1)C(=O)NO [Example 91-26] | < 2 µg/mL | < 2 µg/mL | < 2 µg/mL | < 2 µg/mL | < 2 µg/mL | – | < 2 µg/mL | 16 to 64 µg/mL (≈ 45.3 to 181 µM) | – | – | – | – | –
12 | C[C@@H](N)[C@H](NC(=O)c1ccc(C#CC#CCC2CC2)cc1)C(=O)NO [Example 91-27] | < 2 µg/mL | 2 to 16 µg/mL (≈ 5.89 to 47.1 µM) | < 2 µg/mL | < 2 µg/mL | < 2 µg/mL | – | 2 to 16 µg/mL (≈ 5.89 to 47.1 µM) | 16 to 64 µg/mL (≈ 47.1 to 189 µM) | – | – | – | – | –
13 | C[C@H](NCC(=O)N[C@H](C)[C@H](NC(=O)c1ccc(C#Cc2ccccc2)cc1)C(=O)NO)c1ccccc1 [Example 132-5] | 16 to 64 µg/mL (≈ 32.1 to 128 µM) | 16 to 64 µg/mL (≈ 32.1 to 128 µM) | – | 16 to 64 µg/mL (≈ 32.1 to 128 µM) | < 2 µg/mL | – | 16 to 64 µg/mL (≈ 32.1 to 128 µM) | 16 to 64 µg/mL (≈ 32.1 to 128 µM) | – | – | – | – | –
